For 25 substances, 3 h FOB score results are on record in the OligoGym collection.

For the data set, the target named is UBE3A-ATS. Kind of data set: mouse, dose not given. As to conditions: ASO.

HELM strings list units from the 5' end as sugar, base in round brackets, then linkage (d deoxyribose, r ribose, m 2'-O-methyl, p phosphodiester). Strings are as the collection lists them; they lack the last nucleoside at the 3' end of the tested compound. [moe] = 2'-O-(2-methoxyethyl) (MOE); [sp] = phosphorothioate linkage; [m5C] = 5-methylcytosine

“RNA1{[moe](A)[sp].[moe](A)[sp].[moe](G)[sp].[moe](G)[sp].[moe](G)[sp].d(T)[sp].d(A)[sp].d(A)[sp].d(T)[sp].d(A)[sp].d([m5C])[sp].d(G)[sp].d(G)[sp].d(A)[sp].d([m5C])[sp].[moe]([m5C])[sp].[moe](T)[sp].[moe]([m5C])[sp].[moe](A)}$$$$ (last 3' nucleoside missing)”: the 3 h FOB score was found to be 6.5 score 0-7.

“RNA1{[moe](A)[sp].[moe](A)p.[moe](A)p.[moe](A)p.[moe](T)p.d(A)[sp].d([m5C])[sp].d([m5C])[sp].d(A)[sp].d([m5C])[sp].d(A)[sp].d(A)[sp].d(A)[sp].d(G)[sp].d(A)[sp].[moe](T)p.[moe](A)p.[moe](G)[sp].[moe](G)}$$$$ (last 3' nucleoside missing)” displayed a 3 h FOB score of 2.5 score 0-7.

In turn, “RNA1{[moe](A)[sp].[moe](A)p.[moe](A)p.[moe](A)p.[moe](T)p.d([m5C])[sp].d([m5C])[sp].d(A)[sp].d(T)[sp].d(T)[sp].d(T)[sp].d(G)[sp].d(T)[sp].d([m5C])[sp].d([m5C])[sp].[moe](A)p.[moe](G)p.[moe](T)[sp].[moe]([m5C])}$$$$ (last 3' nucleoside missing)” showed a 3 h FOB score of 2.3 score 0-7.

“RNA1{[moe](A)[sp].[moe](A)p.[moe](A)p.[moe](A)p.[moe]([m5C])p.d(G)[sp].d([m5C])[sp].d(A)[sp].d(A)[sp].d(T)[sp].d(G)[sp].d(T)[sp].d(A)[sp].d(T)[sp].d([m5C])[sp].[moe](A)p.[moe](G)p.[moe](G)[sp].[moe]([m5C])}$$$$ (last 3' nucleoside missing)”: the 3 h FOB score was 0.7 score 0-7.

The substance “RNA1{[moe](A)[sp].[moe](A)p.[moe](A)p.[moe](T)p.[moe]([m5C])p.d([m5C])[sp].d(A)[sp].d(T)[sp].d(T)[sp].d(T)[sp].d(G)[sp].d(T)[sp].d([m5C])[sp].d([m5C])[sp].d(A)[sp].[moe](G)p.[moe](T)p.[moe]([m5C])[sp].[moe](T)}$$$$ (last 3' nucleoside missing)” returned a 3 h FOB score of 4.2 score 0-7.

Regarding “RNA1{[moe](A)[sp].[moe](A)p.[moe](A)p.[moe]([m5C])p.[moe](G)p.[moe]([m5C])p.d(A)[sp].d(A)[sp].d(T)[sp].d(G)[sp].d(T)[sp].d(A)[sp].d(T)[sp].d([m5C])[sp].d(A)[sp].d(G)[sp].[moe](G)p.[moe]([m5C])[sp].[moe](A)}$$$$ (last 3' nucleoside missing)”, the 3 h FOB score stood at 3 score 0-7.

“RNA1{[moe](A)[sp].[moe](A)p.[moe](A)p.[moe]([m5C])p.d(G)[sp].d([m5C])[sp].d(A)[sp].d(A)[sp].d(T)[sp].d(G)[sp].d(T)[sp].d(A)[sp].d(T)[sp].d([m5C])[sp].[moe](A)p.[moe](G)p.[moe](G)p.[moe]([m5C])[sp].[moe](A)}$$$$ (last 3' nucleoside missing)” came in with a 3 h FOB score of 2 score 0-7.

In turn, “RNA1{[moe](A)[sp].[moe](A)p.[moe](G)p.[moe](T)p.[moe](A)p.d(T)[sp].d(A)[sp].d(G)[sp].d(A)[sp].d(T)[sp].d(G)[sp].d([m5C])[sp].d([m5C])[sp].d(T)[sp].d([m5C])[sp].[moe](T)p.[moe]([m5C])p.[moe]([m5C])[sp].[moe](T)}$$$$ (last 3' nucleoside missing)” came in with a 3 h FOB score of 4 score 0-7.

Regarding “RNA1{[moe](A)[sp].[moe](A)p.[moe](G)p.[moe](T)p.[moe](G)p.d(G)[sp].d(A)[sp].d(T)[sp].d([m5C])[sp].d(T)[sp].d([m5C])[sp].d(T)[sp].d(T)[sp].d(G)[sp].d(G)[sp].[moe](G)p.[moe]([m5C])p.[moe](A)[sp].[moe](G)}$$$$ (last 3' nucleoside missing)”, the 3 h FOB score stood at 4.8 score 0-7.

On to “RNA1{[moe](A)[sp].[moe](A)p.[moe](G)p.[moe](T)p.[moe]([m5C])p.d(A)[sp].d(T)[sp].d(T)[sp].d([m5C])[sp].d([m5C])[sp].d([m5C])[sp].d([m5C])[sp].d(A)[sp].d([m5C])[sp].d([m5C])[sp].[moe]([m5C])p.[moe](T)p.[moe](G)[sp].[moe](G)}$$$$ (last 3' nucleoside missing)”, for which the 3 h FOB score was found to be 1.8 score 0-7.

Substance “RNA1{[moe](A)[sp].[moe](A)p.[moe]([m5C])p.[moe](A)p.[moe](A)p.d([m5C])[sp].d(G)[sp].d(G)[sp].d(T)[sp].d(T)[sp].d(G)[sp].d([m5C])[sp].d(A)[sp].d(G)[sp].d(G)[sp].[moe](G)p.[moe](A)p.[moe]([m5C])[sp].[moe](A)}$$$$ (last 3' nucleoside missing)” displayed a 3 h FOB score of 6.8 score 0-7.

In turn, “RNA1{[moe](A)[sp].[moe](A)p.[moe]([m5C])p.[moe](G)p.[moe]([m5C])p.[moe](A)p.d(A)[sp].d(T)[sp].d(G)[sp].d(T)[sp].d(A)[sp].d(T)[sp].d([m5C])[sp].d(A)[sp].d(G)[sp].d(G)[sp].[moe]([m5C])p.[moe](A)[sp].[moe](A)}$$$$ (last 3' nucleoside missing)” showed a 3 h FOB score of 4.7 score 0-7.

Regarding “RNA1{[moe](A)[sp].[moe](A)p.[moe]([m5C])p.[moe](G)p.[moe]([m5C])p.d(A)[sp].d(A)[sp].d(T)[sp].d(G)[sp].d(T)[sp].d(A)[sp].d(T)[sp].d([m5C])[sp].d(A)[sp].d(G)[sp].[moe](G)p.[moe]([m5C])p.[moe](A)[sp].[moe](A)}$$$$ (last 3' nucleoside missing)”, the 3 h FOB score worked out at 1 score 0-7.

“RNA1{[moe](A)[sp].[moe](A)p.[moe]([m5C])p.[moe](G)p.d([m5C])[sp].d(A)[sp].d(A)[sp].d(T)[sp].d(G)[sp].d(T)[sp].d(A)[sp].d(T)[sp].d([m5C])[sp].d(A)[sp].[moe](G)p.[moe](G)p.[moe]([m5C])p.[moe](A)[sp].[moe](A)}$$$$ (last 3' nucleoside missing)”: the 3 h FOB score turned out to be 2 score 0-7.

The substance “RNA1{[moe](A)[sp].[moe](A)p.[moe]([m5C])p.[moe](T)p.[moe](G)p.d([m5C])[sp].d(T)[sp].d(T)[sp].d([m5C])[sp].d(A)[sp].d([m5C])[sp].d([m5C])[sp].d(A)[sp].d(T)[sp].d(T)[sp].[moe](T)p.[moe](T)p.[moe](G)[sp].[moe](A)}$$$$ (last 3' nucleoside missing)” showed a 3 h FOB score of 0 score 0-7.

With “RNA1{[moe](A)[sp].[moe](A)p.[moe]([m5C])p.[moe](T)p.[moe](T)p.d([m5C])[sp].d(A)[sp].d(T)[sp].d([m5C])[sp].d(A)[sp].d(A)[sp].d(T)[sp].d(A)[sp].d(T)[sp].d(T)[sp].[moe](T)p.[moe]([m5C])p.[moe]([m5C])[sp].[moe]([m5C])}$$$$ (last 3' nucleoside missing)”, the 3 h FOB score came out at 1 score 0-7.

In the case of “RNA1{[moe](A)[sp].[moe](G)p.[moe](A)p.[moe](G)p.[moe](A)p.d([m5C])[sp].d([m5C])[sp].d(T)[sp].d([m5C])[sp].d(A)[sp].d(A)[sp].d(G)[sp].d(A)[sp].d([m5C])[sp].d([m5C])[sp].[moe](T)p.[moe](A)p.[moe](T)[sp].[moe](A)}$$$$ (last 3' nucleoside missing)”, the 3 h FOB score stood at 3.8 score 0-7.

In turn, “RNA1{[moe](A)[sp].[moe](G)p.[moe](A)p.[moe](G)p.[moe](G)p.d(A)[sp].d(T)[sp].d(T)[sp].d(T)[sp].d(A)[sp].d(G)[sp].d(A)[sp].d(G)[sp].d(T)[sp].d(T)[sp].[moe](A)p.[moe](A)p.[moe](A)[sp].[moe](A)}$$$$ (last 3' nucleoside missing)” gave a 3 h FOB score of 2.8 score 0-7.

“RNA1{[moe](A)[sp].[moe](G)p.[moe](A)p.[moe](G)p.[moe](G)p.d([m5C])[sp].d([m5C])[sp].d([m5C])[sp].d(T)[sp].d([m5C])[sp].d(T)[sp].d(T)[sp].d(G)[sp].d(T)[sp].d(T)[sp].[moe](T)p.[moe]([m5C])p.[moe](A)[sp].[moe](A)}$$$$ (last 3' nucleoside missing)”: the 3 h FOB score amounted to 1.8 score 0-7.

Turning to “RNA1{[moe](A)[sp].[moe](G)p.[moe](A)p.[moe](G)p.[moe](T)p.d(A)[sp].d(G)[sp].d(T)[sp].d([m5C])[sp].d(T)[sp].d(A)[sp].d(T)[sp].d(T)[sp].d(G)[sp].d(G)[sp].[moe](T)p.[moe](G)p.[moe](T)[sp].[moe](T)}$$$$ (last 3' nucleoside missing)”, the 3 h FOB score amounted to 3.8 score 0-7.

“RNA1{[moe](A)[sp].[moe](G)p.[moe](A)p.[moe](T)p.[moe](A)p.d([m5C])[sp].d(T)[sp].d([m5C])[sp].d(A)[sp].d([m5C])[sp].d(T)[sp].d([m5C])[sp].d(G)[sp].d([m5C])[sp].d(T)[sp].[moe](T)p.[moe](T)p.[moe](T)[sp].[moe]([m5C])}$$$$ (last 3' nucleoside missing)” showed a 3 h FOB score of 3.2 score 0-7.

“RNA1{[moe](A)[sp].[moe](G)p.[moe](A)p.[moe]([m5C])p.[moe](T)p.d(A)[sp].d(T)[sp].d([m5C])[sp].d([m5C])[sp].d(T)[sp].d(G)[sp].d(G)[sp].d(T)[sp].d(A)[sp].d(T)[sp].[moe](G)p.[moe](A)p.[moe]([m5C])[sp].[moe](T)}$$$$ (last 3' nucleoside missing)” yielded a 3 h FOB score of 6 score 0-7.

For “RNA1{[moe](A)[sp].[moe](G)p.[moe](A)p.[moe]([m5C])p.[moe]([m5C])p.d(T)[sp].d(A)[sp].d(T)[sp].d(A)[sp].d(G)[sp].d(G)[sp].d(A)[sp].d([m5C])[sp].d([m5C])[sp].d(T)[sp].[moe]([m5C])p.[moe](A)p.[moe](G)[sp].[moe](G)}$$$$ (last 3' nucleoside missing)”, the 3 h FOB score came out at 4 score 0-7.

Regarding “RNA1{[moe](A)[sp].[moe](G)p.[moe](G)p.[moe](A)p.[moe](T)p.d(T)[sp].d(A)[sp].d(A)[sp].d(A)[sp].d(A)[sp].d(G)[sp].d(T)[sp].d(T)[sp].d(G)[sp].d(A)[sp].[moe](A)p.[moe](A)p.[moe]([m5C])[sp].[moe](A)}$$$$ (last 3' nucleoside missing)”, the 3 h FOB score amounted to 4 score 0-7.

In turn, “RNA1{[moe](A)[sp].[moe](G)p.[moe](G)p.[moe](A)p.[moe](T)p.d(T)[sp].d([m5C])[sp].d(A)[sp].d(A)[sp].d(T)[sp].d(A)[sp].d(G)[sp].d(T)[sp].d(G)[sp].d(T)[sp].[moe](A)p.[moe](G)p.[moe](G)[sp].[moe](T)}$$$$ (last 3' nucleoside missing)” gave a 3 h FOB score of 6.7 score 0-7.
